Assay results as given in ChEMBL document CHEMBL1177736, “Isopropylidene substitution increases activity and selectivity of biphenylmethylene 4-pyridine type CYP17 inhibitors” (J Med Chem, 2010).

Tests used:
[1] = target: T1, Cytochrome P450 11B1, mitochondrial (Homo sapiens, UniProt P15538); experiment: Inhibition of human CYP11B1 expressed in hamster V79MZh cells; format: cell-based
T1 sequence (P15538 whole entry): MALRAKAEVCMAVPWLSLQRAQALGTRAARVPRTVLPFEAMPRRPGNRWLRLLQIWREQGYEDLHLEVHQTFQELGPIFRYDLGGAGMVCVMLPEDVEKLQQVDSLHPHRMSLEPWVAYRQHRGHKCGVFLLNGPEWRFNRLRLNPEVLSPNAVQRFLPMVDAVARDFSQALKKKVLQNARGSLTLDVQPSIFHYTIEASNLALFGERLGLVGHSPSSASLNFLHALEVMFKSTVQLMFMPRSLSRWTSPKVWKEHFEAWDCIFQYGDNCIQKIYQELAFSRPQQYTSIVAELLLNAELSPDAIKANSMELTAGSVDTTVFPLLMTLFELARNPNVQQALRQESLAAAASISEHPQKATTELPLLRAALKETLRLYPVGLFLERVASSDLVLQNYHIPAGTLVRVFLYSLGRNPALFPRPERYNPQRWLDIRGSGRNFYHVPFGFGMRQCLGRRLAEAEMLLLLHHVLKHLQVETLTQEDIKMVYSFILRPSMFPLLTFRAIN

[2] = target: T2, Cytochrome P450 11B2, mitochondrial (Homo sapiens, UniProt P19099); experiment: Inhibition of human CYP11B2 expressed in hamster V79MZh cells; format: cell-based
T2 sequence (P19099 whole entry): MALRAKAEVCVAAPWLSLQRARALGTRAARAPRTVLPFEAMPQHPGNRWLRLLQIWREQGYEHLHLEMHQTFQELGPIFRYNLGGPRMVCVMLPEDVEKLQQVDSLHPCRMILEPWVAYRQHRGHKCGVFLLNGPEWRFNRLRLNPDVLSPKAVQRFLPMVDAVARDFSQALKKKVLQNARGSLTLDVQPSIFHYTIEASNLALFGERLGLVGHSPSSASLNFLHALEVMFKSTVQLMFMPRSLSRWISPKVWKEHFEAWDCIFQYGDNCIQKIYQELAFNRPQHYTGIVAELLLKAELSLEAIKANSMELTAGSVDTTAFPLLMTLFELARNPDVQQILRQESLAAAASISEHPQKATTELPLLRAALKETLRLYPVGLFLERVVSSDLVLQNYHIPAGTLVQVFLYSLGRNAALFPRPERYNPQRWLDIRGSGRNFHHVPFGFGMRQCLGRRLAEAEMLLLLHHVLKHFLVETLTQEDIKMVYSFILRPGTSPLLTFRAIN

Aromatase = target: T3, Aromatase (Homo sapiens, UniProt P11511); experiment: Inhibition of CYP19 in human placental microsomes; parameters: species or system Placenta
T3 sequence (P11511 whole entry): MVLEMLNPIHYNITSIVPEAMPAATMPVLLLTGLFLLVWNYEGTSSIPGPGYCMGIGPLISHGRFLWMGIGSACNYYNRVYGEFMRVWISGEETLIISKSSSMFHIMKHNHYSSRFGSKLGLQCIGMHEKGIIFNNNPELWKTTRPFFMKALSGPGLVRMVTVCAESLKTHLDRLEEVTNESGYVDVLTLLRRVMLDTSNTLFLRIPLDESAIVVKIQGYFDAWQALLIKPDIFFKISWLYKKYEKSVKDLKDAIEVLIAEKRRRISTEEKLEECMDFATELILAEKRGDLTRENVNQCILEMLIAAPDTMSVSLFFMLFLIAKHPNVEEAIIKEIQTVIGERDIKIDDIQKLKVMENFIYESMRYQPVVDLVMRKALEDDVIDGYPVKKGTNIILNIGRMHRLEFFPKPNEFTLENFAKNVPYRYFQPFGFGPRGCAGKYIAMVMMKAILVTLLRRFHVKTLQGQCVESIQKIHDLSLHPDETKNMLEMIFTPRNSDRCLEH

Cytochrome P450 3A4 = Cytochrome P450 3A4 (Homo sapiens, UniProt P08684); experiment: Inhibition of CYP3A4 expressed in baculovirus infected insect microsomes; parameters: species or system Microsome
Sequence of Cytochrome P450 3A4 (P08684 whole entry): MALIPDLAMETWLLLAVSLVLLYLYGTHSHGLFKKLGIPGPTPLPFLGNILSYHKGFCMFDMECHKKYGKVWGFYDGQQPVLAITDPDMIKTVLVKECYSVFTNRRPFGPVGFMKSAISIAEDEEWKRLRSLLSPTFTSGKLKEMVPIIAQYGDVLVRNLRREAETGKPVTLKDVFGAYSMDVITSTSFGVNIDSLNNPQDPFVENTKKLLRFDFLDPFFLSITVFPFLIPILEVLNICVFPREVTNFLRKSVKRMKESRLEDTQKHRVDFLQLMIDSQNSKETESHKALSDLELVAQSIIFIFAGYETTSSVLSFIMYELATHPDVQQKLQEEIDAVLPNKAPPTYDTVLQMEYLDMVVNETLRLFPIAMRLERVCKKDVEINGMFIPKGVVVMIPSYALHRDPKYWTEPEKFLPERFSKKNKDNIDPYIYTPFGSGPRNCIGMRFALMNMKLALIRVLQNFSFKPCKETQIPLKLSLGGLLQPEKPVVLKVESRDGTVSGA

[3] = target: T4, Steroid 17-alpha-hydroxylase/17,20 lyase (Homo sapiens, UniProt P05093); experiment: Inhibition of human CYP17 expressed in Escherichia coli coexpressing NADPH-P450 reductase
T4 sequence (P05093 whole entry): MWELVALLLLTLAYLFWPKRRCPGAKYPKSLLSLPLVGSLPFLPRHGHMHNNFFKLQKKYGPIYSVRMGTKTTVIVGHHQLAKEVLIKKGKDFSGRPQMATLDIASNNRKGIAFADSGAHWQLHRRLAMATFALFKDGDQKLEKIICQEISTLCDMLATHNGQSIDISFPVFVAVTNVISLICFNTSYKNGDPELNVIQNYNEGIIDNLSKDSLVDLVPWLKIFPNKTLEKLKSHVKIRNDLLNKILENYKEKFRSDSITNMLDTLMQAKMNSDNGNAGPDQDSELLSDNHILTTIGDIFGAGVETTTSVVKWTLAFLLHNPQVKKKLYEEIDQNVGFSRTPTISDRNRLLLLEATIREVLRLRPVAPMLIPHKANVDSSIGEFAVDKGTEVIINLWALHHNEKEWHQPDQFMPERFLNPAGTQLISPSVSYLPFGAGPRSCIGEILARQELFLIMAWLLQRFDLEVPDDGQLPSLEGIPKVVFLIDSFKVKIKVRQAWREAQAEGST

## Oc1cccc(-c2ccc(Cc3ccncc3)cc2)c1
[1]
  IC50: 342 nM
[2]
  IC50: 261 nM
Aromatase
  IC50: 663 nM
Cytochrome P450 3A4
  IC50: 538 nM

## CC(C)=C(c1ccncc1)c1ccc(-c2ccc3cc(O)ccc3c2)cc1
[3]
  IC50: 62 nM
[1]
  IC50: 5060 nM
[2]
  IC50: 49500 nM
Aromatase
  IC50: 48700 nM

## CC(C)=C(c1ccncc1)c1ccc(-c2ccc(O)c(F)c2)cc1
[3]
  IC50: 75 nM
[1]
  IC50: 2000 nM
[2]
  IC50: 1870 nM
Aromatase
  IC50: 5750 nM
Cytochrome P450 3A4
  IC50: 17600 nM

## CC(C)=C(c1ccncc1)c1ccc(-c2ccc(NC(=O)OC(C)(C)C)c(NC(=O)OC(C)(C)C)c2)cc1
[3]
  IC50: > 10000 nM

## CC(C)=C(c1ccncc1)c1ccc(-c2cccc(N)c2)cc1
[3]
  IC50: 38 nM
[1]
  IC50: 7300 nM
[2]
  IC50: 3830 nM
Aromatase
  IC50: 5060 nM
Cytochrome P450 3A4
  IC50: 1330 nM

## CC(C)C(c1ccncc1)c1ccc(-c2cccc(O)c2)cc1 (stereo unspecified)
[3]
  IC50: 783 nM

## Oc1ccc(-c2ccc(Cc3ccncc3)cc2)cc1O
[3]
  IC50: 52 nM
[1]
  IC50: 1400 nM
[2]
  IC50: 948 nM
Aromatase
  IC50: 2440 nM
Cytochrome P450 3A4
  IC50: 7580 nM

## CC(C)=C(c1ccncc1)c1ccc(-c2cccc(O)c2)cc1
[3]
  IC50: 56 nM
[1]
  IC50: 3100 nM
[2]
  IC50: 3450 nM
Aromatase
  IC50: 12000 nM
Cytochrome P450 3A4
  IC50: 730 nM

## Nc1cccc(-c2ccc(Cc3ccncc3)cc2)c1
[3]
  IC50: 226 nM
[1]
  IC50: 287 nM
[2]
  IC50: 921 nM
Aromatase
  IC50: 2830 nM

## CC(C)=C(c1ccncc1)c1ccc(-c2cccc(NC(=O)OC(C)(C)C)c2)cc1
[3]
  IC50: 1460 nM

## Nc1ccc(-c2ccc(Cc3ccncc3)cc2)cc1N
[3]
  IC50: 337 nM
[1]
  IC50: 502 nM
[2]
  IC50: 368 nM
Aromatase
  IC50: 24600 nM

## CC(C)=C(c1ccncc1)c1ccc(-c2ccc(O)c(O)c2)cc1
[3]
  IC50: 37 nM
[1]
  IC50: 37500 nM
[2]
  IC50: 974 nM
Aromatase
  IC50: 9500 nM
Cytochrome P450 3A4
  IC50: 464 nM

## CCC(c1ccncc1)c1ccc(-c2cccc(O)c2)cc1 (stereo unspecified)
[3]
  IC50: 189 nM

## C[C@]12CC[C@H](O)CC1=CC[C@@H]1[C@@H]2CC[C@]2(C)C(c3cccnc3)=CC[C@@H]12 [ABIRATERONE]
[1]
  IC50: 1610 nM
[2]
  IC50: 1750 nM
Aromatase
  IC50: > 50000 nM

## CC(C)=C(c1ccncc1)c1ccc(-c2ccc(NC(=O)OC(C)(C)C)c(F)c2)cc1
[3]
  IC50: 852 nM

## Oc1ccc(-c2ccc(Cc3ccncc3)cc2)cc1F
[3]
  IC50: 186 nM
[1]
  IC50: 351 nM
[2]
  IC50: 110 nM
Aromatase
  IC50: 1670 nM
Cytochrome P450 3A4
  IC50: 896 nM

## CCC(c1ccncc1)c1ccc(-c2ccc(O)c(F)c2)cc1 (stereo unspecified)
[3]
  IC50: 343 nM

## CC(C)=C(c1ccncc1)c1ccc(-c2ccc(NC(=O)OC(C)(C)C)cc2)cc1
[3]
  IC50: 493 nM

## CC(C)=C(c1ccncc1)c1ccc(-c2ccc(N)c(N)c2)cc1
[3]
  IC50: 75 nM
[1]
  IC50: 7180 nM
[2]
  IC50: 1130 nM
Aromatase
  IC50: 49500 nM
Cytochrome P450 3A4
  IC50: 1770 nM
